# Legend:
# Type in all cases: in vivo, human
# serum S-100β = assay: Clinical test Example 2: serum S-100β content (SMART S100 ELISA Kit); settings: administered groups (2 to 12 mg/kg/h, i.v. 7 days) in comparison with placebo group; particularly remarkable on and after 3 days; FIG. 3
# Description: (§1) As a clinical test, a double blind test was carried out using patients with cerebral infarction at the acute phase (within 24 hours after onset of the disease) under the following conditions by (2R)-2-propyloctanoic acid administration groups (6 varied doses) and a placebo administration group. • Object: 92 patients in the acute phase cerebral infarction. • Administration method and dosage: 1 hour of continuous intravenous administration once a day in each group; • (1) (2R)-2-propyloctanoic acid: 2 mg/kg/h; • (2) (2R)-2-propyloctanoic acid: 4 mg/kg/h; • (3) (2R)-2-propyloctanoic acid: 6 mg/kg/h; • (4) (2R)-2-propyloctanoic acid: 8 mg/kg/h; • (5) (2R)-2-propyloctanoic acid: 10 mg/kg/h; • (6) (2R)-2-propyloctanoic acid: 12 mg/kg/h; • (7) placebo. • Administration period: 7 days • The Number of Cases: • (1) (2R)-2-propyloctanoic acid 2 mg/kg/h administered group: 9 patients; • (2) (2R)-2-propyloctanoic acid 4 mg/kg/h administered group: 8 patients; • (3) (2R)-2-propyloctanoic acid 6 mg/kg/h administered group: 8 patients; • (4) (2R)-2-propyloctanoic acid 8 mg/kg/h administered group: 8 patients; • (5) (2R)-2-propyloctanoic acid 10 mg/kg/h administered group: 8 patients; • (6) (2R)-2-propyloctanoic acid 12 mg/kg/h administered group: 8 patients; • (7) placebo administered group: 43 patients. […]
# [1] = tested on: patients with cerebral infarction at the acute phase (within 72 hours after onset of the disease); assay: Clinical test Example 1: randomization test at two doses, efficacy by Rankin Scale and Glasgow Outcome Scale; settings: 4 mg/kg/h vs 0.4 mg/kg/h group, 1 h continuous i.v. once a day for 7 days, cases with JSS≦15 before administration, three months after commencement of administration
# Description: (§2) As a clinical test, a randomization test was carried out on patients with cerebral infarction at the acute phase (within 72 hours after onset of the disease), at two doses under the following conditions. • Object: 97 patients in the acute phase cerebral infarction. • Administration method and dosage: 1 hour of continuous intravenous administration once a day in each group; • (1) (2R)-2-propyloctanoic acid: 0.4 mg/kg/h; • (2) (2R)-2-propyloctanoic acid: 4 mg/kg/h. • Administration period: 7 days • The Number of Cases: • (1) (2R)-2-propyloctanoic acid 0.4 mg/kg/h administered group: 51 patients; • (2) (2R)-2-propyloctanoic acid 4 mg/kg/h administered group: 46 patients. Evaluation Items: Main Evaluation Items <Efficacy Evaluation Items> (1) Rankin Scale (RS)
# Evaluation method: Symptoms of patients were scored by classifying them into the following grades of Table 1.
# (2) Glasgow Outcome Scale (GOS)
# Evaluation method: Symptoms of patients were scored by classifying them into the following grades of Table 2.
# (§3) <Safety Evaluation Item> • Frequency of adverse matters and the contents thereof (symptoms, causal relation and the like): • Analysis: Therapeutic effects by continuous intravenous administration of (2R)-2-propyloctanoic acid were evaluated based on the above main evaluation items. • Results: The results are shown below. <Efficacy Evaluation Item>
# [2] = tested on: patients with cerebral infarction at the acute phase (within 24 hours after onset of the disease); assay: Clinical test Example 2: double blind placebo-controlled test, efficacy by modified Rankin Scale; settings: 8 mg/kg/h administration group, 1 h continuous i.v. once a day for 7 days; 40 days after commencement of administration; statistically significant vs placebo (32.5%)
# Description: as §1
# [3] = tested on: patients with cerebral infarction at the acute phase (within 24 hours after onset of the disease); assay: Clinical test Example 2: safety evaluation (adverse matters and clinical test values); settings: administration group (2 to 12 mg/kg/h, i.v. 7 days)
# Description: As a clinical test, a double blind test was carried out using patients with cerebral infarction at the acute phase (within 24 hours after onset of the disease) under the following conditions by (2R)-2-propyloctanoic acid administration groups (6 varied doses) and a placebo administration group. • Object: 92 patients in the acute phase cerebral infarction. • Administration method and dosage: 1 hour of continuous intravenous administration once a day in each group; • (1) (2R)-2-propyloctanoic acid: 2 mg/kg/h; • (2) (2R)-2-propyloctanoic acid: 4 mg/kg/h; • (3) (2R)-2-propyloctanoic acid: 6 mg/kg/h; • (4) (2R)-2-propyloctanoic acid: 8 mg/kg/h; • (5) (2R)-2-propyloctanoic acid: 10 mg/kg/h; • (6) (2R)-2-propyloctanoic acid: 12 mg/kg/h; • (7) placebo. • Administration period: 7 days • The Number of Cases: • (1) (2R)-2-propyloctanoic acid 2 mg/kg/h administered group: 9 patients; • (2) (2R)-2-propyloctanoic acid 4 mg/kg/h administered group: 8 patients; • (3) (2R)-2-propyloctanoic acid 6 mg/kg/h administered group: 8 patients; • (4) (2R)-2-propyloctanoic acid 8 mg/kg/h administered group: 8 patients; • (5) (2R)-2-propyloctanoic acid 10 mg/kg/h administered group: 8 patients; • (6) (2R)-2-propyloctanoic acid 12 mg/kg/h administered group: 8 patients; • (7) placebo administered group: 43 patients. Evaluation Items: Main Evaluation Items <Efficacy Evaluation Items> (1) Modified Rankin Scale (mRS)
# Adverse Matters and Clinical Test Values
# • Analysis: Therapeutic effects by continuous intravenous administration of (2R)-2-propyloctanoic acid was evaluated based on the above main evaluation items. • Results: The results are shown below. <Efficacy Evaluation Item>
# [4] = tested on: patients with cerebral infarction at the acute phase (within 72 hours after onset of the disease); assay: Clinical test Example 1: safety evaluation (frequency of adverse matters and contents); settings: i.v. 7 days, causal relation to the test drug was denied
# Description: as §2, §3
structure (smiles),measurement,setting,value
CCCCCC[C@@H](CCC)C(=O)O [(2R)-2-propyloctanoic acid],serum S-100β content during the administration period,serum S-100β,tendency of inhibiting increase of the serum S-100β content
same,ratio of occupying the category of improvement by RS (Rankin Scale),[1]; FIG. 1,statistically significant differences were found
same,ratio of occupying the category of improvement by GOS (Glasgow Outcome Scale),[1]; FIG. 2,statistically significant differences were found
same,ratio occupied by a score of 2 or less (category of good improvement) on modified Rankin Scale (mRS),[2],87.5%
same,Serious adverse matters,"[3]; causal relation to the test drug was denied, placebo 12 cases",10 cases
same,Frequency of the adverse matters (side effects) whose causal relation to the test drug was not denied,"[3]; placebo 39.5%, no difference",42.9%
same,Frequency of the adverse matters,"[3]; placebo 100%, no difference",98%
same,cases of death,[4]; 0.4 mg/kg/h administration group,3 cases
same,cases of death,[4]; 4 mg/kg/h administration group,4 cases

# Source: patent US7928143B2, “Method for preventing and/or treating neurodegenerative diseases” (Ono Pharmaceutical Co., Ltd., priority 2003, dated 2011)
